Our source for the IC50 values is patent publication US12371454B2, “Cyclic peptide compound having Kras inhibitory action” (priority 2019, dated 2025).

The structures appear in SMILES notation. Starred links: 1 amine or outer side, 2 acyl side, 3 side chain; linkers in the order of their positions; H or OH if unused. Positions of bridges follow the written chain, without caps; N, C: chain ends. Non-standard residues stand in square brackets, D forms with d. Residues, ends and D or L forms follow the SMILES beside them. *: point of attachment. hPhe(3-Cl-4-CF3) = N[C@@H](CCc1ccc(C(F)(F)F)c(Cl)c1)C(=O)O; Pro(trans-4-Ph) = O=C(O)[C@@H]1C[C@@H](c2ccccc2)CN1; NMeNle(6-CHF2) = CN[C@@H](CCCCC(F)F)C(=O)O; NMedβ3hAla = C[C@H](CC(=O)[*:2])N(C)[*:1]; NMeAla(cPent) = CN[C@@H](CC1CCCC1)C(=O)O; NMeGly(cPent) = CN[C@H](C(=O)O)C1CCCC1; NMeGly(cBu) = CN[C@H](C(=O)O)C1CCC1; NMeCha = CN[C@@H](CC1CCCCC1)C(=O)O; NMeGly(cPr) = CN[C@H](C(=O)O)C1CC1; NMeAhp(2) = CCCCC[C@H](NC)C(=O)O; NMeChg = CN[C@H](C(=O)O)C1CCCCC1; Gly(cBu) = N[C@H](C(=O)O)C1CCC1; NMeD = CN[C@@H](CC(=O)O)C(=O)O; NMeL = CN[C@@H](CC(C)C)C(=O)O; NMeV = CN[C@H](C(=O)O)C(C)C; Azetidin(1-yl) = C1CN(*)C1; NMeA = CN[C@@H](C)C(=O)O; Piperidide = C1CCN(*)CC1; Ac5c = NC1(C(=O)O)CCCC1; Aze = O=C(O)[C@@H]1CCN1; Sar = CNCC(=O)O

For the experiment, the system named is Human pancreatic cancer cell line AsPC-1. The experiment is described as follows: Measurement of AsPC-1 cell growth inhibition (AsPC-1 CGI). It is filed as cell-based. Conditions: 96 h. As for the experimental part: Measurement of AsPC-1 Cell Growth Inhibition (AsPC-1 CGI)
Test compounds were serially diluted with dimethyl sulfoxide, and 200 nL was then dispensed to a U-bottom 96-well plate using Labcyte Echo. Human pancreatic cancer cell line AsPC-1 was suspended in RPMI-1640 medium supplemented with 15% fetal bovine serum to prepare a cell suspension at 1000 cells/100 μL. The cell suspension was dispensed to a plate containing a test compound at 100 μL per well and incubated at 37° C. in a 5% carbon dioxide gas incubator. 96 hours later, 80 μL of CellTiter-Glo (Promega) was added to each well and […] was measured.
As for `CC[C@H](C)[C@@H]1NC(=O)[C@H](CC(C)C)N(C)C(=O)C[C@@H](C)N(C)C(=O)[C@H](C(C)C)N(C)C(=O)C2(CCCC2)NC(=O)[C@@H]2CCCN2C(=O)[C@H](CCc2ccc(C(F)(F)F)c(Cl)c2)NC(=O)CN(C)C(=O)[C@H](CC2CCCC2)N(C)C(=O)CN(C)C(=O)CN(C)C1=O` [Compound 88] (cyclo([Ac5c][NMeV][NMedβ3hAla][NMeL]I[Sar][Sar][NMeAla(cPent)][Sar][hPhe(3-Cl-4-CF3)]P)), the IC50 is 50 to 100 nM.
`CC[C@H](C)[C@@H]1NC(=O)[C@H](CC(C)C)N(C)C(=O)C[C@@H](C(=O)N2CCCCC2)N(C)C(=O)[C@H](C2CCCCC2)N(C)C(=O)C2(CCCC2)NC(=O)[C@@H]2C[C@@H](c3ccccc3)CN2C(=O)[C@H](CCc2ccc(C(F)(F)F)c(Cl)c2)NC(=O)CN(C)C(=O)[C@H](CC2CCCCC2)N(C)C(=O)CN(C)C(=O)CN(C)C1=O` [Compound 90] ([NMeL]I[Sar][Sar][NMeCha][Sar][hPhe(3-Cl-4-CF3)][Pro(trans-4-Ph)][Ac5c][NMeChg][NMeD]-Piperidide; lactam N-11) registered an IC50 of 100 to 500 nM.
As to `CC[C@H](C)[C@@H]1NC(=O)[C@H](CCCCC(F)F)N(C)C(=O)C[C@@H](C(=O)N2CCCCC2)N(C)C(=O)[C@H](C(C)C)N(C)C(=O)C2(CCCC2)NC(=O)[C@@H]2CCCN2C(=O)[C@H](CCc2ccc(C(F)(F)F)c(Cl)c2)NC(=O)CN(C)C(=O)[C@H](CC2CCCCC2)N(C)C(=O)[C@@H]2CCN2C(=O)[C@H](C)N(C)C1=O` [Compound 94] ([NMeNle(6-CHF2)]I[NMeA][Aze][NMeCha][Sar][hPhe(3-Cl-4-CF3)]P[Ac5c][NMeV][NMeD]-Piperidide; lactam N-11), the IC50 lay within 100 to 500 nM.
For `CC[C@H](C)[C@@H]1NC(=O)[C@H](C2CC2)N(C)C(=O)C[C@@H](C(=O)N2CCCCC2)N(C)C(=O)[C@H](C(C)C)N(C)C(=O)C2(CCCC2)NC(=O)[C@@H]2CCCN2C(=O)[C@H](CCc2ccc(C(F)(F)F)c(Cl)c2)NC(=O)CN(C)C(=O)[C@H](CC2CCCCC2)N(C)C(=O)[C@@H]2CCN2C(=O)[C@H](C)N(C)C1=O` [Compound 100] ([NMeGly(cPr)]I[NMeA][Aze][NMeCha][Sar][hPhe(3-Cl-4-CF3)]P[Ac5c][NMeV][NMeD]-Piperidide; lactam N-11), the IC50 lay within 100 to 500 nM.
Regarding `CC[C@H](C)[C@@H]1NC(=O)[C@H](CC(C)C)N(C)C(=O)C[C@@H](C(=O)N2CCCCC2)N(C)C(=O)[C@H](C2CCCC2)N(C)C(=O)C2(CCCC2)NC(=O)[C@@H]2CCCN2C(=O)[C@H](CCc2ccc(C(F)(F)F)c(Cl)c2)NC(=O)CN(C)C(=O)[C@H](C2CCC2)N(C)C(=O)[C@@H]2CCN2C(=O)[C@H](C)N(C)C1=O` [Compound 127] ([NMeL]I[NMeA][Aze][NMeGly(cBu)][Sar][hPhe(3-Cl-4-CF3)]P[Ac5c][NMeGly(cPent)][NMeD]-Piperidide; lactam N-11), the IC50 lay within 20 to 50 nM.
The figure for `CCCCC[C@H]1C(=O)N[C@@H]([C@@H](C)CC)C(=O)N[C@@H](C)C(=O)N2CC[C@H]2C(=O)N(C)[C@@H](CC2CCCCC2)C(=O)N(C)CC(=O)N[C@@H](CCc2ccc(C(F)(F)F)c(Cl)c2)C(=O)N2CCC[C@H]2C(=O)NC2(CCCC2)C(=O)N(C)[C@@H](C2CCCC2)C(=O)N(C)[C@H](C(=O)N2CCC2)CC(=O)N1C` [Compound 155] ([NMeAhp(2)]IA[Aze][NMeCha][Sar][hPhe(3-Cl-4-CF3)]P[Ac5c][NMeGly(cPent)][NMeD]-{Azetidin(1-yl)}; lactam N-11) is 20 to 50 nM.
`CC(C)C[C@H]1C(=O)N[C@@H](C2CCC2)C(=O)N(C)[C@@H](C)C(=O)N2CC[C@H]2C(=O)N(C)[C@@H](CC2CCCCC2)C(=O)N(C)CC(=O)N[C@@H](CCc2ccc(C(F)(F)F)c(Cl)c2)C(=O)N2CCC[C@H]2C(=O)NC2(CCCC2)C(=O)N(C)[C@@H](C(C)C)C(=O)N(C)[C@H](C(=O)N2CCCCC2)CC(=O)N1C` [Compound 157] ([NMeL][Gly(cBu)][NMeA][Aze][NMeCha][Sar][hPhe(3-Cl-4-CF3)]P[Ac5c][NMeV][NMeD]-Piperidide; lactam N-11) gave an IC50 of 100 to 500 nM.
